We go through two compounds from paper PMC10482691, “LTP induction by structural rather than enzymatic functions of CaMKII” (Nature, 2023).

Molecules are shown by their SMILES. Several values for one entry are separate records, joined by “and”; a condition that tells them apart may be missing. Identical values can stand only once.

Test [1] deals with GFP–paCaMKII T286A in hippocampal neurons. Description: paCaMKII T286A photoactivation: dendritic spine growth (sLTP). Format: cell-based.
In test [2] the test system is GFP–paCaMKII F89G in hippocampal neurons. Description: paCaMKII F89G photoactivation: dendritic spine growth (sLTP). Format: cell-based.

In the case of `NCCNc1cccc(-c2ccnc3[nH]c4ccccc4c23)c1` [AS283], the “spine growth after photoactivation of paCaMKII T286A” value in test [1] (AS283 10 μM) is listed as “spine growth”. For the same compound, the “dendritic spine growth after photoactivation (sheet 6c)” value in test [1] (paCaMKII T286A + AS283, individual neurons) was 17.1219 and 31.801 and 10.2332 and 47.3616 and 15.5579 and 21.0974 and 9.7214 and 4.0121 and 26.179.

`CC(C)(C)n1nc(Cc2cccc3ccccc23)c2c(N)ncnc21` [NM-PP1]: in test [2] (NM-PP1 10 μM), the “spine growth after photoactivation of paCaMKII F89G” value is “spine growth”. Further, in test [2] (paCaMKII F89G + NMPP1, individual neurons), the “dendritic spine growth after photoactivation (sheet 6f)” value was 172.556 and 35.7596 and 20.47 and 19.9369 and 44.1548 and -7.983 and 10.7769 and 28.3493 and 0.9564 and -9.357 and -3.692 and 75.8167 and 167.851 and -2.441 and -1.61 and -17.673 and 155.504 and 81.1061.
